Experimental data reported in patent US6670339B1, “Use of sulfated oligosaccharides in lowering blood triglyceride levels” (The Australian National University, priority 1997, dated 2003).

Experiments:
[1] = target: T1, bovine milk lipoprotein lipase (Bos taurus, UniProt P11151); assay: Inhibition of binding of biotinylated heparin/heparan sulfate to immobilised lipoprotein lipase
T1 construct: purified from bovine milk as previously described; from tissue; host or cells: bovine milk
T1 sequence (P11151 29-478): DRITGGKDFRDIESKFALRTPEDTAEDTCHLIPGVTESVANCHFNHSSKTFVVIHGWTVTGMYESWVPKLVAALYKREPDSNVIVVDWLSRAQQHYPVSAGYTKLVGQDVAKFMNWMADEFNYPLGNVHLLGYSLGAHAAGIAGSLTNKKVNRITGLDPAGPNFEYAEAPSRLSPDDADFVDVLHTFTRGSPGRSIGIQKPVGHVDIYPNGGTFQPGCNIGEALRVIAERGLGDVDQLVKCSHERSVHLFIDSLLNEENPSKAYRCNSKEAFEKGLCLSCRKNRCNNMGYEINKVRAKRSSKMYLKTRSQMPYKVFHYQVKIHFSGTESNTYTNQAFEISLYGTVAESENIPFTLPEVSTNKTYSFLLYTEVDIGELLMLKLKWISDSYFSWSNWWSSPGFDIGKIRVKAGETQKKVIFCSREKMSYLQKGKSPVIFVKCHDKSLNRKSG
Protocol: As a more rapid and direct means of measuring the ability of different sulfated oligosaccharides to release lipoprotein lipase from the endothelium, an in vitro assay for this effect was developed. The assay involved immobilising lipoprotein lipase (10 μg/ml in PBS, 15 hr, 4° C.), purified from bovine milk as previously described^12, in 96 well plastic microplates (50 μl/well). Non-specific binding sites were then blocked by the addition of 200 μl/well of PBS containing 1% (w/v) bovine serum albumin (BSA) for 2 hr at 4° C. Following three washes with 200 μl/well of PBS/0.05% Tween 20 (PBST), 50 μl/well of either biotinylated bovine lung heparin or biotinylated porcine mucosal heparan sulfate (Sigma), used at either 1 or 10 μg/ml, was added and incubated for 2 hr at 4° C. Following three washes with PBST, 50 μl/well of europeum-streptavidin (1 ng/ml in PBS/1% BSA) was added for 1 hr at 4° C., the plate again washed three times with PBST, enhancement solution (50 μl/well) added and bound europeum measured by time resolved fluorescence detection using a Delfia Research Fluorometer (Wallac, Turku, Finland). Inhibition assays measured the ability of different sulfated oligosacchandes to inhibit the binding of biotinylated heparan/heparin sulfate to the immobilised lipoprotein lipase enzyme.

[2] = system: blood triglyceride levels; assay: Blood triglyceride levels in Fisher rats after 7 days of twice daily s.c. injection; format: in vivo; details: female Fisher rats, blood on day 8, control 1.43±0.13
Protocol: 1. Nine 10 week old female Fisher rats were treated with the sulfated mannopentaose phosphate or saline over a 7 day period as follows. On […] the rats were weighed and placed into three groups of three rats based on weight. On every subsequent morning their weights were recorded. Each morning beginning on day 1 at approximately 8.00 AM and evening at approximately 8.00 PM the rats were injected in the following manner. The control group received sterile normal saline solution 100 μl s.c. One treatment group received the sulfated mannopentaose phosphate at a dose of 10 mg/kg s.c. in an injection volume of 100 μl of sterile saline solution. Thus, each rat in this group received a total daily dose of 20 mg/kg. Animals in the second treatment group received the sulfated mannopentaose phosphate at a dose of 50 mg/kg s.c. in an injection volume of 100 μl of sterile saline solution. Thus, each rat in this group received a total daily dose of 100 mg/kg. This injection routine was repeated for a total of 7 days.
On the morning of day 8 of the experiment, the rats were anaesthetised and blood was taken for triglyceride analysis. Triglyceride levels were determined using a commercially available assay kit (Sigma, Triglyceride—GPO-Trinder). […]

[3] = system: blood triglyceride levels; assay: Blood triglyceride levels in mice under continuous infusion by mini-osmotic pump; format: in vivo, CBA/h female mice
Protocol: Thus, 10 CBA/h female mice 8-10 weeks old were weighed and divided into two groups of 5 mice each based on weight. Mice in the control group were implanted subcutaneously with a mini-osmotic pump (Alzet 2001) containing sterile normal saline solution. Mice in the treatment group were implanted subcutaneously with a mini-osmotic pump containing the sulfated mannopentaose phosphate which delivered the sulfated mannopentaose phosphate at a dose of 50 mg/kg/day. At the end of the 7 day period over which the mini-osmotic pumps delivered their payload, blood (50 μl) was collected from the tail veins of mice from both groups and assayed for triglycerides (Sigma, Triglyceride—GPO-Trinder). Triglyceride levels in the blood from mice in the control group averaged 1.49±0.23 mM and triglyceride levels in the blood of mice in the treatment group averaged 1.01±0.07 mM. One week following the treatment period, blood triglyceride levels were measured again in each group and levels in the treatment group had returned to normal, or those approximating the control group. Thus, at this point levels of triglycerides in the blood of mice in the control group averaged 1.29±0.08 mM and levels of triglycerides in the blood of mice in the treatment group averaged 1.27±0.06 mM.

[4] = system: serum triglyceride levels; assay: Time course of serum triglyceride levels in mice after a single s.c. dose; format: in vivo, CBA/h female mice; details: single 50 mg/kg s.c.
Protocol: FIG. 1. Time course of the effect of a single s.c. dose (50 mg/kg) of sulfated mannopentaose phosphate (PI-88) on serum triglyceride levels, as measured by the Sigma triglyceride assay. Data presented as group means±SEM (n=4).
Thus, 32 CBA/h female mice 8-10 weeks old were weighed and placed into eight groups, containing four mice each based on weight. The control group was injected with sterile normal saline solution 100 μl s.c. All the treatment groups were injected with sulfated mannopentaose at a dose of 50 mg/kg s.c. in a volume of 100 μl of sterile normal saline solution. At 0.5, 1, 2, 3, 6, 24 and 48 hours following injection mice were anaesthetised and blood was collected via cardiac puncture and allowed to clot and serum triglyceride levels were measured using a commercially available kit (Sigma, Triglyceride—GPO-Trinder).

- IC50, inhibition of binding of Biotinylated Heparin (1 μg/ml) to lipoprotein lipase ([1]; biotinylated bovine lung heparin 1 μg/ml): 1 µg/mL
- IC50, inhibition of binding of Biotinylated Heparin (10 μg/ml) to lipoprotein lipase ([1]; biotinylated bovine lung heparin 10 μg/ml): 3 µg/mL
- IC50, inhibition of binding of Biotinylated Heparan Sulfate (10 μg/ml) to lipoprotein lipase ([1]; biotinylated porcine mucosal heparan sulfate 10 μg/ml): 0.1 µg/mL
- inhibitory activity on lipoprotein lipase binding to heparin/heparan sulfate, in words ([1]; summary of Table 1): potent inhibitors
Substance: sulfated mannopentaose phosphate [PI-88 (15 SO4/molecule)]
- blood triglyceride levels ([2]; 20 mg/kg/day s.c. (10 mg/kg twice daily)): 0.3 ± 0.12 mmol/L
- blood triglyceride levels ([2]; 100 mg/kg/day s.c. (50 mg/kg twice daily)): 0.1 ± 0.0 mmol/L
- triglyceride levels in the blood ([3]; 50 mg/kg/day by s.c. mini-osmotic pump, end of 7 day period, control 1.49±0.23): 1.01 ± 0.07 mM
- triglyceride levels in the blood ([3]; one week following the 7 day infusion of 50 mg/kg/day, control 1.29±0.08): 1.27 ± 0.06 mM
- time to significant reduction in blood triglyceride levels [4]: ≤ 0.5 h
- time until which triglyceride levels continued to fall (maximum lowering) [4]: 2 h
- triglyceride levels versus controls, in words ([4]; 6 hours after injection): significantly lower than controls
- triglyceride levels versus controls, in words ([4]; 24 hour time point): returning to normal
